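Following 48 hours of exposure in 96-well plates, responses at five concentrations were used to interpolate endpoints linearly. The concentration for 50% growth inhibition is given as GI50.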 Active and inactive are the calls of the source. No stated cut-off is given here; in the data, active = GI50 up to about 1.1 µM and inactive = higher.
Columns and labels:
Assay in all cases: growth of human tumour cells (NCI), 48 h
ACHN = system: ACHN
HCT-116 = system: HCT-116
Hs-578T = system: Hs-578T
RXF 393 = system: RXF 393
HOP-62 = system: HOP-62
786-0 = system: 786-0
TK-10 = system: TK-10
NCI-H226 = system: NCI-H226
UO-31 = system: UO-31
SN12C = system: SN12C
SK-OV-3 = system: SK-OV-3
MCF7 = system: MCF7
HOP-92 = system: HOP-92
EKVX = system: EKVX
SF-268 = system: SF-268
PC-3 = system: PC-3
OVCAR-8 = system: OVCAR-8
LOX IMVI = system: LOX IMVI
NCI/ADR-RES = system: NCI/ADR-RES
UACC-257 = system: UACC-257
HT-29 = system: HT-29
SF-539 = system: SF-539
SK-MEL-28 = system: SK-MEL-28
M14 = system: M14
DU-145 = system: DU-145
HL-60 = system: HL-60
MDA-MB-435 = system: MDA-MB-435
UACC-62 = system: UACC-62
BT-549 = system: BT-549
MOLT-4 = system: MOLT-4
Malme-3M = system: Malme-3M
OVCAR-5 = system: OVCAR-5
SK-MEL-2 = system: SK-MEL-2
SNB-19 = system: SNB-19
OVCAR-4 = system: OVCAR-4
SNB-75 = system: SNB-75
K562 = system: K562
NCI-H23 = system: NCI-H23
NCI-H460 = system: NCI-H460
MDA-MB-231 = system: MDA-MB-231
SW-620 = system: SW-620
HCT-15 = system: HCT-15
U-251 = system: U-251
A498 = system: A498
A549 = system: A549
COLO 205 = system: COLO 205
T47D = system: T47D
HCC 2998 = system: HCC 2998
NCI-H522 = system: NCI-H522
SK-MEL-5 = system: SK-MEL-5
KM12 = system: KM12
OVCAR-3 = system: OVCAR-3
CAKI-1 = system: CAKI-1
RPMI-8226 = system: RPMI-8226
IGROV-1 = system: IGROV-1
CCRF-CEM = system: CCRF-CEM
SR = system: SR
MDA-N = system: MDA-N
SF-295 = system: SF-295

Question: How did the GI50 (ACHN) turn out when `CC1CCC(C(C)C2C(O)CC3C4CC=C5CC(O)CCC5(C)C4CCC32C)NC1` (centres undefined) was run?
Answer: 42 µM (inactive)

Question: What about the GI50 (HCT-116) of the same compound?
Answer: 45.3 µM (inactive)

Question: And the GI50 (Hs-578T)?
Answer: 35.9 µM (inactive)

Question: What about the GI50 (RXF 393) of the same compound?
Answer: 65 µM (inactive)

Question: What about the GI50 (HOP-62) of the same compound?
Answer: 27.7 µM (inactive)

Question: And the GI50 (786-0)?
Answer: 32.2 µM (inactive)

Question: What about the GI50 (TK-10) of the same compound?
Answer: 14.5 µM (inactive)

Question: What about the GI50 (NCI-H226) of the same compound?
Answer: 70.8 µM (inactive)

Question: And the GI50 (UO-31)?
Answer: 41.4 µM (inactive)

Question: And the GI50 (SN12C)?
Answer: 20.3 µM (inactive)

Question: And the GI50 (SK-OV-3)?
Answer: > 100 µM (inactive)

Question: What about the GI50 (MCF7) of the same compound?
Answer: 39.4 µM (inactive)

Question: What about the GI50 (HOP-92) of the same compound?
Answer: 23.7 µM (inactive)

Question: And the GI50 (EKVX)?
Answer: > 100 µM (inactive)

Question: What about the GI50 (SF-268) of the same compound?
Answer: > 100 µM (inactive)

Question: And the GI50 (PC-3)?
Answer: 26.9 µM (inactive)

Question: What about the GI50 (OVCAR-8) of the same compound?
Answer: 15.9 µM (inactive)

Question: What about the GI50 (LOX IMVI) of the same compound?
Answer: 21.3 µM (inactive)

Question: And the GI50 (NCI/ADR-RES)?
Answer: 23.4 µM (inactive)

Question: What about the GI50 (UACC-257) of the same compound?
Answer: 34.5 µM (inactive)

Question: What about the GI50 (HT-29) of the same compound?
Answer: 43.1 µM (inactive)

Question: What about the GI50 (SF-539) of the same compound?
Answer: 34.2 µM (inactive)

Question: What about the GI50 (SK-MEL-28) of the same compound?
Answer: > 100 µM (inactive)

Question: What about the GI50 (M14) of the same compound?
Answer: > 100 µM (inactive)

Question: What about the GI50 (DU-145) of the same compound?
Answer: 69.8 µM (inactive)

Question: And the GI50 (HL-60)?
Answer: 17.3 µM (inactive)

Question: And the GI50 (MDA-MB-435)?
Answer: 30.9 µM (inactive)

Question: What about the GI50 (UACC-62) of the same compound?
Answer: 49.5 µM (inactive)

Question: And the GI50 (BT-549)?
Answer: > 100 µM (inactive)

Question: What about the GI50 (MOLT-4) of the same compound?
Answer: 8.38 µM (inactive)

Question: What about the GI50 (Malme-3M) of the same compound?
Answer: 20.6 µM (inactive)

Question: What about the GI50 (OVCAR-5) of the same compound?
Answer: 89.7 µM (inactive)

Question: What about the GI50 (SK-MEL-2) of the same compound?
Answer: > 100 µM (inactive)

Question: And the GI50 (SNB-19)?
Answer: 25.7 µM (inactive)

Question: And the GI50 (OVCAR-4)?
Answer: 20.2 µM (inactive)

Question: What about the GI50 (SNB-75) of the same compound?
Answer: 28.2 µM (inactive)

Question: And the GI50 (K562)?
Answer: 39.2 µM (inactive)

Question: And the GI50 (NCI-H23)?
Answer: 36.9 µM (inactive)

Question: What about the GI50 (NCI-H460) of the same compound?
Answer: 48 µM (inactive)

Question: And the GI50 (MDA-MB-231)?
Answer: 24.7 µM (inactive)

Question: And the GI50 (SW-620)?
Answer: 31.7 µM (inactive)

Question: What about the GI50 (HCT-15) of the same compound?
Answer: 44 µM

Question: And the GI50 (U-251)?
Answer: 24.4 µM (inactive)

Question: And the GI50 (A498)?
Answer: > 100 µM (inactive)

Question: And the GI50 (A549)?
Answer: 83 µM (inactive)

Question: What about the GI50 (COLO 205) of the same compound?
Answer: > 100 µM (inactive)

Question: And the GI50 (T47D)?
Answer: 62.1 µM (inactive)

Question: What about the GI50 (HCC 2998) of the same compound?
Answer: 11.9 µM (inactive)

Question: And the GI50 (NCI-H522)?
Answer: 63 µM (inactive)

Question: What about the GI50 (SK-MEL-5) of the same compound?
Answer: 44.2 µM (inactive)

Question: How did the GI50 (ACHN) turn out when `O=C(c1ccccc1)n1c2ccc(Br)cc2c2nc3ccccc3nc21` was run?
Answer: 57.1 µM (inactive)

Question: And the GI50 (KM12)?
Answer: > 100 µM (inactive)

Question: What about the GI50 (HCT-116) of the same compound?
Answer: > 100 µM (inactive)

Question: What about the GI50 (RXF 393) of the same compound?
Answer: > 100 µM (inactive)

Question: And the GI50 (HOP-62)?
Answer: 15.9 µM (inactive)

Question: What about the GI50 (786-0) of the same compound?
Answer: 37.8 µM (inactive)

Question: What about the GI50 (OVCAR-3) of the same compound?
Answer: 34.9 µM (inactive)

Question: What about the GI50 (TK-10) of the same compound?
Answer: > 100 µM (inactive)

Question: And the GI50 (NCI-H226)?
Answer: > 100 µM (inactive)

Question: What about the GI50 (UO-31) of the same compound?
Answer: 45.8 µM (inactive)

Question: What about the GI50 (SN12C) of the same compound?
Answer: > 100 µM (inactive)

Question: What about the GI50 (MCF7) of the same compound?
Answer: 43.8 µM (inactive)

Question: What about the GI50 (HOP-92) of the same compound?
Answer: > 100 µM (inactive)

Question: And the GI50 (EKVX)?
Answer: > 100 µM (inactive)

Question: What about the GI50 (CAKI-1) of the same compound?
Answer: > 100 µM (inactive)

Question: And the GI50 (SF-268)?
Answer: > 100 µM (inactive)

Question: And the GI50 (PC-3)?
Answer: 43.2 µM (inactive)

Question: What about the GI50 (OVCAR-8) of the same compound?
Answer: > 100 µM (inactive)

Question: What about the GI50 (LOX IMVI) of the same compound?
Answer: > 100 µM (inactive)

Question: And the GI50 (NCI/ADR-RES)?
Answer: > 100 µM (inactive)

Question: And the GI50 (UACC-257)?
Answer: > 100 µM (inactive)

Question: What about the GI50 (HT-29) of the same compound?
Answer: > 100 µM (inactive)

Question: And the GI50 (SF-539)?
Answer: > 100 µM (inactive)

Question: And the GI50 (SK-MEL-28)?
Answer: > 100 µM (inactive)

Question: What about the GI50 (RPMI-8226) of the same compound?
Answer: 27.7 µM (inactive)

Question: What about the GI50 (M14) of the same compound?
Answer: > 100 µM (inactive)

Question: What about the GI50 (DU-145) of the same compound?
Answer: > 100 µM (inactive)

Question: What about the GI50 (IGROV-1) of the same compound?
Answer: 67.6 µM (inactive)

Question: And the GI50 (HL-60)?
Answer: > 100 µM (inactive)

Question: What about the GI50 (MDA-MB-435) of the same compound?
Answer: > 100 µM (inactive)

Question: What about the GI50 (UACC-62) of the same compound?
Answer: > 100 µM (inactive)

Question: And the GI50 (BT-549)?
Answer: > 100 µM (inactive)

Question: What about the GI50 (MOLT-4) of the same compound?
Answer: 46.9 µM (inactive)

Question: What about the GI50 (Malme-3M) of the same compound?
Answer: > 100 µM (inactive)

Question: What about the GI50 (OVCAR-5) of the same compound?
Answer: > 100 µM (inactive)

Question: And the GI50 (SK-MEL-2)?
Answer: 95.3 µM (inactive)

Question: What about the GI50 (SNB-19) of the same compound?
Answer: > 100 µM (inactive)

Question: What about the GI50 (OVCAR-4) of the same compound?
Answer: 48.6 µM (inactive)

Question: And the GI50 (SNB-75)?
Answer: 46.2 µM (inactive)

Question: What about the GI50 (K562) of the same compound?
Answer: 72.8 µM (inactive)

Question: What about the GI50 (NCI-H23) of the same compound?
Answer: > 100 µM (inactive)

Question: And the GI50 (NCI-H460)?
Answer: 71 µM (inactive)

Question: What about the GI50 (MDA-MB-231) of the same compound?
Answer: > 100 µM (inactive)

Question: What about the GI50 (CCRF-CEM) of the same compound?
Answer: 58.9 µM (inactive)

Question: What about the GI50 (SW-620) of the same compound?
Answer: > 100 µM (inactive)

Question: What about the GI50 (HCT-15) of the same compound?
Answer: > 100 µM

Question: What about the GI50 (U-251) of the same compound?
Answer: 65 µM (inactive)

Question: And the GI50 (SR)?
Answer: > 100 µM (inactive)

Question: And the GI50 (COLO 205)?
Answer: > 100 µM (inactive)

Question: What about the GI50 (MDA-N) of the same compound?
Answer: > 100 µM (inactive)

Question: What about the GI50 (HCC 2998) of the same compound?
Answer: > 100 µM (inactive)

Question: And the GI50 (NCI-H522)?
Answer: 43.7 µM (inactive)

Question: What about the GI50 (SK-MEL-5) of the same compound?
Answer: > 100 µM (inactive)

Question: And the GI50 (SF-295)?
Answer: > 100 µM (inactive)

Source: ChEMBL document CHEMBL1201862, “PubChem BioAssay data set” (2004)
